Measured values from patent US11672800B2, “Combination therapies with EHMT2 inhibitors” (Epizyme, Inc., priority 2017, dated 2023).

Experiments:
Assay type in all cases: cell-based
[1] = test system: MeWo; assay: In vitro combination study of Compound 205 with a second agent, melanoma cell proliferation (CellTiter Glo, Loewe synergy); conditions: combination with Compound 205; for Combinatorial effect (Loewe method) of second agent with Compound 205, MeWo: 7 days pre-treatment with Compound 205, then 7 days co-treatment, ATP content, Loewe volume >1 synergy, -1 to 1 additivity; for Combinatorial effect (Loewe method) of second agent with Compound 205, MeWo: key: SYN Synergy; ADD Additivity
Experimental: (§1) On day 14 plates were developed for endpoint analysis using CellTiter Glo to measure ATP content, which was used as an indicator of cell viability. DMSO concentration was kept constant throughout the assay at 0.2% v/v.
(§2) All cells were maintained and cultured at 37° C., in a humidified atmosphere and 5% CO2.
(§3) Loewe volumes greater than 1 denoted synergy and volumes below −1 denoted antagonism. A value between −1 and 1 denoted additivity.

[2] = test system: WM-266-4; assay: as above; conditions: combination with Compound 205; for Combinatorial effect (Loewe method) of second agent with Compound 205, WM-266-4: 7 days pre-treatment with Compound 205, then 7 days co-treatment, ATP content, Loewe volume >1 synergy, -1 to 1 additivity; for Combinatorial effect (Loewe method) of second agent with Compound 205, WM-266-4: key: SYN Synergy; ADD Additivity
Experimental: as §1, §2, §3

[3] = test system: CCRF-CEM; assay: In vitro long term proliferation (LTP), T-ALL cell line; conditions: Homo sapiens, 336 h, 14 day LTP, absolute IC50, seeding density 100000, read-out: Compound A75 IC50
Experimental: (§4) Exponentially growing T-cell lymphocytic leukemia (T-ALL) cells were plated, in triplicate, in 96-well plates at the appropriate cell density in a final volume of 150 μl. Cells were incubated in the presence of increasing concentrations of Compound A75. Viable cell number was determined at day 0, 4, 7, 11 and 14 days using Calcein staining and using an Accumen instrument to enumerate the number of cells. On days of cell counts, growth media and Compound A75 were replaced and cells split back to initial density. Total cell number is expressed as split-adjusted viable cells per well. For each cell line, absolute IC50 values (concentration of compound at which 50% inhibition occurs) were determined from concentration-dependence curves at 14 days using Graphpad Prism software.

[4] = test system: Jurkat; assay: as above; conditions: Homo sapiens, 336 h, 14 day LTP, absolute IC50, seeding density 100000, read-out: Compound A75 IC50
Experimental: as §4

[5] = test system: MOLT-16; assay: as above; conditions: Homo sapiens, 336 h, 14 day LTP, absolute IC50, seeding density 100000, read-out: Compound A75 IC50
Experimental: as §4

[6] = test system: MOLT-4; assay: as above; conditions: Homo sapiens, 336 h, 14 day LTP, absolute IC50, seeding density 100000, read-out: Compound A75 IC50
Experimental: as §4

[7] = test system: PEER; assay: as above; conditions: Homo sapiens, 336 h, 14 day LTP, absolute IC50, seeding density 250000, read-out: Compound A75 IC50
Experimental: as §4

[8] = test system: SUP-T1; assay: as above; conditions: Homo sapiens, 336 h, 14 day LTP, absolute IC50, seeding density 200000, read-out: Compound A75 IC50
Experimental: as §4

[9] = test system: TALL-1; assay: as above; conditions: Homo sapiens, 336 h, 14 day LTP, absolute IC50, seeding density 150000, read-out: Compound A75 IC50
Experimental: as §4

Compound: Cn1cnc2c(F)c(Nc3ccc(Br)cc3Cl)c(C(=O)NOCCO)cc21 [Selumetinib, selumetinib]
- Combinatorial effect (Loewe method) of second agent with Compound 205, MeWo [1]: ADD
- Combinatorial effect (Loewe method) of second agent with Compound 205, WM-266-4 [2]: ADD

Compound: CC(=O)c1c(C)c2cnc(Nc3ccc(N4CCNCC4)cn3)nc2n(C2CCCC2)c1=O [Palbociclib, palbociclib]
- Combinatorial effect (Loewe method) of second agent with Compound 205, MeWo [1]: SYN
- Combinatorial effect (Loewe method) of second agent with Compound 205, WM-266-4 [2]: SYN

Compound: CNC1=Nc2cc(C#CCN3CCCCC3)c(OC)cc2C12CCC2 [Compound A75]
- IC50 [3]: 1 to 5 µM
- IC50 [4]: 1 to 5 µM
- IC50 [5]: 0.1 to 1 µM
- IC50 [6]: 0.1 to 1 µM
- IC50 [7]: < 0.1 µM
- IC50 [8]: 5 to 15 µM
- IC50 [9]: 5 to 15 µM

Compound: NC1(c2ccc(-c3nc4ccn5c(=O)[nH]nc5c4cc3-c3ccccc3)cc2)CCC1 [MK-2206]
- Combinatorial effect (Loewe method) of second agent with Compound 205, MeWo [1]: SYN
- Combinatorial effect (Loewe method) of second agent with Compound 205, WM-266-4 [2]: SYN

Compound: CC(C)Nc1cc(-c2c[nH]c(C(=O)N[C@H](CO)c3cccc(Cl)c3)c2)c(Cl)cn1 [BVD-523, N-[(1S)-1-(3-chlorophenyl)-2-hydroxyethyl]-4-[5-chloro-2-(propan-2-ylamino)-pyridin-4-yl]-1H-pyrrole-2-carboxamide]
- Combinatorial effect (Loewe method) of second agent with Compound 205, MeWo [1]: ADD
- Combinatorial effect (Loewe method) of second agent with Compound 205, WM-266-4 [2]: ADD

Compound: CNC(=O)c1cc(Oc2ccc(NC(=O)Nc3ccc(Cl)c(C(F)(F)F)c3)cc2)ccn1 [Sorafenib]
- Combinatorial effect (Loewe method) of second agent with Compound 205, MeWo [1]: ADD
- Combinatorial effect (Loewe method) of second agent with Compound 205, WM-266-4 [2]: SYN

Compound: CS(=O)(=O)N1CCN(Cc2cc3nc(-c4cccc5[nH]ncc45)nc(N4CCOCC4)c3s2)CC1 [Pictilisib, 4-[2-(1H-indazol-4-yl)-6-[(4-methylsulfonylpiperazin-1-yl)methyl]thieno[3,2-d]pyrimidin-4-yl]morpholine]
- Combinatorial effect (Loewe method) of second agent with Compound 205, MeWo [1]: SYN
- Combinatorial effect (Loewe method) of second agent with Compound 205, WM-266-4 [2]: SYN

Compound: CC(C)NC[C@@H](C(=O)N1CCN(c2ncnc3c2[C@H](C)C[C@H]3O)CC1)c1ccc(Cl)cc1 [GDC-0068, (2S)-2-(4-chlorophenyl)-1-[4-[(5R,7R)-7-hydroxy-5-methyl-6,7-dihydro-5H-cyclopenta[d]pyrimidin-4-yl]piperazin-1-yl]-3-(propan-2-ylamino)propan-1-one]
- Combinatorial effect (Loewe method) of second agent with Compound 205, MeWo [1]: ADD
- Combinatorial effect (Loewe method) of second agent with Compound 205, WM-266-4 [2]: SYN

Compound: CO[C@H]1C[C@@H]2CC[C@@H](C)[C@@](O)(O2)C(=O)C(=O)N2CCCC[C@H]2C(=O)O[C@H]([C@H](C)C[C@@H]2CC[C@@H](OCCO)[C@H](OC)C2)CC(=O)[C@H](C)/C=C(\C)[C@@H](O)[C@@H](OC)C(=O)[C@H](C)C[C@H](C)/C=C/C=C/C=C/1C [Everolimus, everolimus]
- Combination effect of Compound 205 and Everolimus (figure legend) ([1]; MeWo melanoma cell line, FIG. 6): synergy
- Combinatorial effect (Loewe method) of second agent with Compound 205, MeWo [1]: SYN
- Combinatorial effect (Loewe method) of second agent with Compound 205, WM-266-4 [2]: SYN
- Combination effect of Compound 205 and Everolimus (figure legend) ([2]; WM-266-4 melanoma cell line, FIG. 6): synergy

Compound: CC(=O)Nc1cccc(-n2c(=O)n(C3CC3)c(=O)c3c(Nc4ccc(I)cc4F)n(C)c(=O)c(C)c32)c1 [Trametinib]
- Combinatorial effect (Loewe method) of second agent with Compound 205, MeWo [1]: ADD
- Combinatorial effect (Loewe method) of second agent with Compound 205, WM-266-4 [2]: ADD

Compound: Nc1cc(C(F)(F)F)c(-c2cc(N3CCOCC3)nc(N3CCOCC3)n2)cn1 [BKM120, 5-(2,6-dimorpholin-4-ylpyrimidin-4-yl)-4-(trifluoromethyl)pyridin-2-amine]
- Combinatorial effect (Loewe method) of second agent with Compound 205, MeWo [1]: SYN
- Combinatorial effect (Loewe method) of second agent with Compound 205, WM-266-4 [2]: SYN
